In US9351974B2, “Substituted pteridinones for the treatment of cancer” (OSI Pharmaceuticals, LLC, priority 2011, dated 2016):

The molecules below were run against T1, His-tagged full-length RSK2 (RPS6KA3) (Homo sapiens, UniProt P51812) (assay: RSK2 Omnia Assay for compound IC50 determination). Conditions: ATP 15 μM, n=2, read-out: Mean RSK2 Biochem IC50.
T1 construct: His-tagged full-length RSK2 (RPS6KA3, Invitrogen PV3323); His; purchased Invitrogen PV3323
Format: biochemical
Method in brief: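 Initial-rate slopes from continuous kinetic reads were fitted to a four-parameter equation for IC50 (n=2). Ki was then derived by Cheng-Prusoff assuming ATP-competitive inhibition. Reactions contained 15 μM ATP (Km 16.3 μM), 5 μM Omnia ST Peptide 6, and […] in 50 mM HEPES pH 7.5, 10 mM MgCl2, 1 mM DTT, 1% DMSO. Compounds spanned 11 threefold steps, […] final.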

T1 sequence (P51812 whole entry): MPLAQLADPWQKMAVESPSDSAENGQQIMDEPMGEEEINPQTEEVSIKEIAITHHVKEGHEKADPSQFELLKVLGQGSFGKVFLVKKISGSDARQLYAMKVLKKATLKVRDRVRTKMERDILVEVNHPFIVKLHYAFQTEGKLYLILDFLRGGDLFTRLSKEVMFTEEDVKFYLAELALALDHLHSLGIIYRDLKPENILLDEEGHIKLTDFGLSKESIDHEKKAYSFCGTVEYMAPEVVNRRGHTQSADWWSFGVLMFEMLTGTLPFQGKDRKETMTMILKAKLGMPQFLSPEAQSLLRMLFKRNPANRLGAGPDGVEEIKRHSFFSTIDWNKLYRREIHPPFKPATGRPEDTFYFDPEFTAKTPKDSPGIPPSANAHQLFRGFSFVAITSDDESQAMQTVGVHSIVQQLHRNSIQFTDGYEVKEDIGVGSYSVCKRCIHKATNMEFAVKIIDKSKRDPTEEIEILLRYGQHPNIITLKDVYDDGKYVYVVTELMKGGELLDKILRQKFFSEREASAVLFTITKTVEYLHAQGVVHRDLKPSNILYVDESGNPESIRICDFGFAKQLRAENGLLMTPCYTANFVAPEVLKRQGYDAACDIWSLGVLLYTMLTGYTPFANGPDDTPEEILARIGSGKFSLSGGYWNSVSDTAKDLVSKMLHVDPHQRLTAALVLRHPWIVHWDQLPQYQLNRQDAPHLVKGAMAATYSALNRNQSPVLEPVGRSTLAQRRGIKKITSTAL

Question: `COc1ccc(N2C(=O)[C@@H](C)N([C@H]3CC[C@@H](OC)CC3)c3nc(Nc4cc(F)c5[nH]ncc5c4)ncc32)cc1OC` [compound 226, (7R)-5-(3,4-dimethoxyphenyl)-2-[(7-fluoro-1H-indazol-5-yl)amino]-8-(cis-4-methoxycyclohexyl)-7-methyl-7,8-dihydropteridin-6(5H)-one] was tested. Which IC50 did it give?
Answer: ≤ 100 nM

Question: With `C[C@@H]1C(=O)N(c2ccc(F)c(F)c2)c2cnc(Nc3ccc4[nH]ncc4c3)nc2N1C1CCCCC1` [Example 49, (7R)-8-cyclohexyl-5-(3,4-difluorophenyl)-2-(1H-indazol-5-ylamino)-7-methyl-7,8-dihydropteridin-6(5H)-one] as the molecule, how does the IC50 read?
Answer: ≤ 100 nM

Question: With `C[C@@H]1C(=O)N(c2cccnc2)c2cnc(Nc3cnc4[nH]ncc4c3)nc2N1C1CCCCC1` [compound 154, (7R)-8-cyclohexyl-7-methyl-2-(1H-pyrazolo[3,4-b]pyridin-5-ylamino)-5-(pyridin-3-yl)-7,8-dihydropteridin-6(5H)-one] as the molecule, how does the IC50 read?
Answer: ≤ 100 nM

Question: How did the IC50 turn out when `C[C@@H]1C(=O)N(c2ccc3c(c2)OCO3)c2cnc(Nc3ccc4[nH]ncc4c3)nc2N1C1CCCCC1` [Example 39, (7R)-5-(1,3-benzodioxol-5-yl)-8-cyclohexyl-2-(1H-indazol-5-ylamino)-7-methyl-7,8-dihydropteridin-6(5H)-one] was run?
Answer: ≤ 100 nM

Question: For `C[C@@H]1C(=O)N(c2cccc(C#N)c2)c2cnc(Nc3ccc(C(=O)O)cc3)nc2N1C1CCCCC1` [compound 155, 4-{[(7R)-5-(3-cyanophenyl)-8-cyclohexyl-7-methyl-6-oxo-5,6,7,8-tetrahydropteridin-2-yl]amino}benzoic acid], which IC50 is on record?
Answer: ≤ 100 nM

Question: With `C[C@@H]1C(=O)N(c2cccc(C#N)c2)c2cnc(Nc3ccc4[nH]c(=O)oc4c3)nc2N1C1CCCCC1` [compound 149, 3-[(7R)-8-cyclohexyl-7-methyl-6-oxo-2-[(2-oxo-2,3-dihydro-1,3-benzoxazol-6-yl)amino]-7,8-dihydropteridin-(6H)-yl]benzonitrile] as the molecule, how does the IC50 read?
Answer: ≤ 100 nM

Question: For `CCOc1ccc(N2C(=O)[C@@H](C)N(C3CCC(F)(F)CC3)c3nc(Nc4cnc5[nH]ncc5c4)ncc32)cc1C#N` [compound 282, 5-[(7R)-8-(4,4-difluorocyclohexyl)-7-methyl-6-oxo-2-(1H-pyrazolo[3,4-b]pyridin-5-ylamino)-7,8-dihydropteridin-5(6H)-yl]-2-ethoxybenzonitrile], which IC50 is on record?
Answer: ≤ 100 nM

Question: How did the IC50 turn out when `C[C@@H]1C(=O)N(c2ccc(C(=O)N(C)C)cc2)c2cnc(Nc3ccc4[nH]ncc4c3)nc2N1C1CCCCC1` [Example 27, 4-[(7R)-8-cyclohexyl-2-(1H-indazol-5-ylamino)-7-methyl-6-oxo-7,8-dihydropteridin-5(6H)-yl]-N,N-dimethylbenzamide] was run?
Answer: ≤ 100 nM

Question: With `CC[C@@H]1C(=O)N(c2cccc(C(F)(F)F)c2)c2cnc(Nc3cc(F)c4[nH]ncc4c3)nc2N1C1CCCCC1` [compound 291, (7R)-8-cyclohexyl-7-ethyl-2-[(7-fluoro-1H-indazol-5-yl)amino]-5-[3-(trifluoromethyl)phenyl]-7,8-dihydropteridin-6(5H)-one] as the molecule, how does the IC50 read?
Answer: ≤ 100 nM

Question: How did the IC50 turn out when `C[C@@H]1C(=O)N(c2cccc(C#N)c2)c2cnc(Nc3ccc4[nH]ncc4c3F)nc2N1C1CCCC1` [Example 216, 3-[(7R)-8-cyclopentyl-2-[(4-fluoro-1H-indazol-5-yl)amino]-7-methyl-6-oxo-7,8-dihydropteridin-5(6H)-yl]benzonitrile] was run?
Answer: ≤ 100 nM

Question: `C[C@@H]1C(=O)N(c2cccc(C#N)c2)c2cnc(Nc3ccc(F)c4[nH]ncc34)nc2N1C1CCCCC1` [compound 107, 3-[(7R)-8-cyclohexyl-2-[(7-fluoro-1H-indazol-4-yl)amino]-7-methyl-6-oxo-7,8-dihydropteridin-5(6H)-yl]benzonitrile] was tested. Which IC50 did it give?
Answer: 100 to 1000 nM

Question: `COc1ccc(N2C(=O)[C@@H](C)N(CCC(C)C)c3nc(Nc4cc(F)c5[nH]ncc5c4)ncc32)cc1OC` [Example 85, (7R)-5-(3,4-dimethoxyphenyl)-2-[(7-fluoro-1H-indazol-5-yl)amino]-7-methyl-8-(3-methylbutyl)-7,8-dihydropteridin-6(5H)-one] was tested. Which IC50 did it give?
Answer: ≤ 100 nM

Question: `C[C@@H]1C(=O)N(c2cccc(C#N)c2)c2cnc(Nc3ccc4[nH]ncc4c3)nc2N1CC1CCC1` [Example 71, 3-[(7R)-8-(cyclobutylmethyl)-2-(1H-indazol-5-ylamino)-7-methyl-6-oxo-7,8-dihydropteridin-5(6H)-yl]benzonitrile] was tested. Which IC50 did it give?
Answer: ≤ 100 nM

Question: How did the IC50 turn out when `COc1cc(F)cc(N2C(=O)[C@@H](C)N(C3CCCCC3)c3nc(Nc4ccc5[nH]ncc5c4)ncc32)c1` [compound 99, (7R)-8-cyclohexyl-5-(3-fluoro-5-methoxyphenyl)-2-(1H-indazol-5-ylamino)-7-methyl-7,8-dihydropteridin-6(5H)-one] was run?
Answer: ≤ 100 nM

Question: With `COc1ccc(N2C(=O)[C@@H](C)N(C3CCC(F)(F)CC3)c3nc(Nc4cnc5[nH]ncc5c4)ncc32)cc1C#N` [compound 279, 5-[(7R)-8-(4,4-difluorocyclohexyl)-7-methyl-6-oxo-2-(1H-pyrazolo[3,4-b]pyridin-5-ylamino)-7,8-dihydropteridin-5(6H)-yl]-2-methoxybenzonitrile] as the molecule, how does the IC50 read?
Answer: ≤ 100 nM

Question: Which IC50 does the source give for `Cc1c(Nc2ncc3c(n2)N(C2CCCCC2)[C@H](C)C(=O)N3c2cccc(C#N)c2)ccc2[nH]ncc12` [compound 117, 3-[(7R)-8-cyclohexyl-7-methyl-2-[(4-methyl-1H-indazol-5-yl)amino]-6-oxo-7,8-dihydropteridin-5(6H)-yl]benzonitrile] here?
Answer: 100 to 1000 nM

Question: `C[C@@H]1C(=O)N(c2cccc(C#N)c2)c2cnc(Nc3ccc4c(c3)CS(=O)(=O)N4)nc2N1[C@H]1CC[C@H](C)CC1` [compound 250, 3-[(7R)-2-[(2,2-dioxido-1,3-dihydro-2,1-benzothiazol-5-yl)amino]-7-methyl-8-(trans-4-methylcyclohexyl)-6-oxo-7,8-dihydropteridin-5(6H)-yl]benzonitrile] was tested. Which IC50 did it give?
Answer: 100 to 1000 nM

Question: Which IC50 does the source give for `C[C@@H]1C(=O)N(c2ccncc2)c2cnc(Nc3ccc4[nH]ncc4c3)nc2N1C1CCCCC1` [Example 20, (7R)-8-cyclohexyl-2-(1H-indazol-5-ylamino)-7-methyl-5-(pyridin-4-yl)-7,8-dihydropteridin-6(5H)-one] here?
Answer: ≤ 100 nM

Question: With `C[C@@H]1C(=O)N(c2cccc(C#N)c2)c2cnc(Nc3ccc4[nH]nc(C#N)c4c3)nc2N1C1CCCCC1` [compound 157, 5-{[(7R)-5-(3-cyanophenyl)-8-cyclohexyl-7-methyl-6-oxo-5,6,7,8-tetrahydropteridin-2-yl]amino}-1H-indazole-3-carbonitrile] as the molecule, how does the IC50 read?
Answer: 100 to 1000 nM

Question: Which IC50 does the source give for `[2H]C1([2H])C(N2c3nc(Nc4cc(F)c5[nH]ncc5c4)ncc3N(c3cccnc3)C(=O)[C@H]2C)C([2H])([2H])C([2H])([2H])C([2H])([2H])C1([2H])[2H]` [compound 301, (7R)-8-[(2,2,3,3,4,4,5,5,6,6-2H10)cyclohexyl]-2-[(7-fluoro-1H-indazol-5-yl)amino]-7-methyl-5-(pyridin-3-yl)-7,8-dihydropteridin-6(5H)-one] here?
Answer: ≤ 100 nM

Question: For `C[C@@H]1C(=O)N(c2ccccc2)c2cnc(Nc3ccc4[nH]ncc4c3)nc2N1CC1CCNCC1` [Example 78, (7R)-2-(1H-indazol-5-ylamino)-7-methyl-5-phenyl-8-(piperidin-4-ylmethyl)-7,8-dihydropteridin-6(5H)-one], which IC50 is on record?
Answer: > 1000 nM

Question: `C[C@@H]1C(=O)N(c2cccnc2)c2cnc(Nc3cc(F)c4[nH]ncc4c3)nc2N1[C@H]1CC[C@@H](C(F)(F)F)CC1` [compound 255, (7R)-2-[(7-fluoro-1H-indazol-5-yl)amino]-7-methyl-5-(pyridin-3-yl)-8-[cis-4-(trifluoromethyl)cyclohexyl]-7,8-dihydropteridin-6(5H)-one] was tested. Which IC50 did it give?
Answer: ≤ 100 nM

Question: With `CC(C)CCN1c2nc(Nc3cc(F)c4[nH]c(=O)oc4c3)ncc2N(c2cccc(C#N)c2)C(=O)[C@H]1C` [Example 90, 3-[(7R)-2-[(4-fluoro-2-oxo-2,3-dihydro-1,3-benzoxazol-6-yl)amino]-7-methyl-8-(3-methylbutyl)-6-oxo-7,8-dihydropteridin-5(6H)-yl]benzonitrile] as the molecule, how does the IC50 read?
Answer: ≤ 100 nM

Question: For `COc1ccc(N2C(=O)[C@@H](C)N([C@H]3CC[C@H](C)CC3)c3nc(Nc4cc(F)c5[nH]ncc5c4)ncc32)cc1OC` [compound 239, (7R)-5-(3,4-dimethoxyphenyl)-2-[(7-fluoro-1H-indazol-5-yl)amino]-7-methyl-8-(trans-4-methylcyclohexyl)-7,8-dihydropteridin-6(5H)-one], which IC50 is on record?
Answer: ≤ 100 nM

Question: With `C[C@@H]1C(=O)N(c2cccc(C#N)c2)c2cnc(Nc3cc(F)c4[nH]ncc4c3)nc2N1C1CCC2(CC1)CC2` [Example 297, 3-[(7R)-2-[(7-fluoro-1H-indazol-5-yl)amino]-7-methyl-6-oxo-8-(spiro[2.5]oct-6-yl)-7,8-dihydropteridin-5(6H)-yl]benzonitrile] as the molecule, how does the IC50 read?
Answer: ≤ 100 nM

Question: How did the IC50 turn out when `C[C@@H]1C(=O)N(c2cccc(C#N)c2)c2cnc(Nc3cc(F)c4[nH]ncc4c3)nc2N1C1CCC(F)(F)CC1` [Example 260, 3-[(7R)-8-(4,4-difluorocyclohexyl)-2-[(7-fluoro-1H-indazol-5-yl)amino]-7-methyl-6-oxo-7,8-dihydropteridin-5(6H)-yl]benzonitrile] was run?
Answer: ≤ 100 nM

Question: Which IC50 does the source give for `C[C@@H]1C(=O)N(c2cccc(C#N)c2)c2cnc(Nc3cc(F)c4c(c3)CC(=O)N4)nc2N1C1CCCCC1` [compound 145, 3-[(7R)-8-cyclohexyl-2-[(7-fluoro-2-oxo-2,3-dihydro-1H-indol-5-yl)amino]-7-methyl-6-oxo-7,8-dihydropteridin-5(6H)-yl]benzonitrile] here?
Answer: ≤ 100 nM

Question: `C[C@@H]1C(=O)N(c2cccc(C#N)c2)c2cnc(Nc3cc(F)c4[nH]ncc4c3)nc2N1C1CCCC1` [Example 219, 3-[(7R)-8-cyclopentyl-2-[(7-fluoro-1H-indazol-5-yl)amino]-7-methyl-6-oxo-7,8-dihydropteridin-5(6H)-yl]benzonitrile] was tested. Which IC50 did it give?
Answer: ≤ 100 nM
